US20230293629A1, “METHODS FOR ATTENUATING RELEASE OF INFLAMMATORY MEDIATORS AND PEPTIDES USEFUL THEREIN” (BIOMARCK PHARMACEUTICALS LTD., priority 2006, published 2023)

What was measured:
PP1 = test: Protein phosphatase activity assay in NHBE cell lysates, PP1; format: cell-based, human; settings: NHBE cells after 8-Br-cGMP
Protocol: (§1) Protein Phosphatase Activity Assay—PP1 and PP2A activities were measured using a protein phosphatase assay system (Life Technologies, Inc.) as known in the art with slight modification. Huang et al., Adv. Exp. Med Biol. 396, 209-215 (1996). Briefly, NHBE cells were treated with 8-Br-cGMP or medium alone for 5 min. Cells were then scraped into a lysis buffer (50 mM Tris-HCl (pH 7.4), 0.1% β-mecaptoethanol, 0.1 mM EDTA, 1 mM benaamidine, 10 μg/ml pepstatin A, 10 μg/ml leupeptin) and disrupted by sonication for 20 s at 4° C. Cell lysates were centrifuged and the supernatants saved for phosphatase activity assay. The assay was performed using ^32P-labeled phosphorylase A as a substrate. Released ^32Pi was counted by scintillation. The protein concentration of each sample was determined by the Bradford assay. PP2A activity was expressed as the sample total phosphatase activity minus the activity remaining in the presence of 1 nM okadaic acid. PP1 activity was expressed as the difference between the activities remaining in the presence of 1 nM and 1 μM okadaic acid, respectively. Protein phosphatase activities were reported as nmol of Pi released per min/mg total protein.

[1] = system: MARCKS phosphorylation in NHBE cells; test: MARCKS phosphorylation in NHBE cells, radiolabeled immunoprecipitation assay; format: cell-based, human
Protocol: Radiolabeled Immunoprecipitation Assay—When labeling with [^32P]phosphate, cells were preincubated for 2 h in phosphate-free Dulbecco's modified Eagle's medium containing 0.2% bovine serum albumin and then labeled with 0.1 mCi/ml [^32P]orthophosphate (9000 Ci/mmol, PerkinElmer Life Sciences) for 2 h. For labeling with [^3H]myristic acid or 3H-amino acids, cells were incubated overnight in medium containing 50 μCi/ml [^3H]myristic acid (49 Ci/mmol, PerkinElmer Life Sciences) or 0.2 mCi/ml [^3H]leucine (159 Ci/mmol, PerkinElmer Life Sciences) plus 0.4 mCi/ml [^3H]proline (100 Ci/mmol, PerkinElmer Life Sciences). Following labeling, cells were exposed to stimulatory reagents for 5 min. When an inhibitor was used, cells were preincubated with the inhibitor for 15 min prior to stimulation. At the end of the treatments, cells were lysed in a buffer containing 50 mM Tris-HCl (pH 7.5), 150 mM NaCl, 1 mM EDTA, 10% glycerol, 1% Nonidet P-40, 1 mM phenylmethylsulfonyl fluoride, 1 mM benzamidine, 10 μg/ml pepstatin A, and 10 μg/ml leupeptin. Trichloroacetic acid precipitation and scintillation counting may determine the radiolabeling efficiency in each culture. Immunoprecipitation of MARCKS protein was carried out according to the method of Spizz and Blackshear using cell lysates containing equal counts/min. Spizz et al., J. Biol. Chem. 271, 553-562 (1996). Precipitated proteins were resolved by 8% SDS-polyacrylamide gel electrophoresis and visualized by autoradiography. Anti-human MARCKS antibody (2F12) and nonimmune control antibody (6F6) were used in this assay.
To assess MARCKS or MARCKS-associated protein complexes in different subcellular fractions, radiolabeled and treated cells were scraped into a homogenization buffer (50 mM Tris-HCl (pH 7.5), 10 mM NaCl, 1 mM EDTA, 1 mM phenylmethylsulfonyl fluoride, 1 mM benzamidine, 10 μg/ml pepstatin A, 10 μg/ml leupeptin) and then disrupted by nitrogen cavitation (800 pounds/square inch for 20 min at 4° C.). Cell lysates were centrifuged at 600×g for 10 min at 4° C. to remove nuclei and unbroken cells. Post-nuclear supernatants were separated into membrane and cytosol fractions by ultracentrifugation at 400,000×g for 30 min at 4° C. The membrane pellet was solubilized in the lysis buffer by sonication. Immunoprecipitation was then carried out as described above.

[2] = system: isolated canine neutrophils; test: MPO secretion from isolated canine neutrophils stimulated with PMA + 8-Br-cGMP (FIG. 6, 10, 11); format: cell-based; settings: FIG. 11; 8-Br-cGMP alone, until co-stimulation with PMA
Description: The invention also relates to a new method for blocking any cellular exocytotic secretory process, especially those releasing inflammatory mediators from granules contained within inflammatory cells, whose stimulatory pathways involve the protein kinase C (PKC) substrate MARCKS protein and release of contents from membrane-bound vesicles. Specifically, the inventors have shown that stimulated release of the inflammatory mediator myloperoxidase from human (FIG. 6) or canine (FIG. 7) neutrophils can be blocked in a concentration-dependent manner by the MANS peptide. […] 10 or 100 μM of a control peptide (RNS) has no effect on MPO secretion. In FIG. 7, isolated neutrophils were stimulated to secrete myloperoxidase (MPO) with 100 nM PMA and 10 μM 8-Br-cGMP. […] 10 or 100 μM of a control peptide (RNS) has no effect on MPO secretion. Thus, the peptide may be used therapeutically to block the release of mediators of inflammation secreted from infiltrating inflammatory cells in any tissues. Many of these released mediators are responsible for the extensive tissue damage observed in a variety of chronic inflammatory diseases (i.e., respiratory diseases such as asthma, chronic bronchitis and COPD, inflammatory bowel diseases including ulcerative colitis and Crohn's disease, autoimmune diseases, skin diseases such as rosacea, eczema; and severe acne, arthritic and pain syndromes such as rheumatoid arthritis and fibromyalgia). This invention may be useful for treating diseases such as arthritis, chronic bronchitis, COPD and cystic fibrosis. This invention is accordingly useful for the treatment in both human and animal diseases, especially those affecting equines, canines, felines, and other household pets.
FIGS. 8-12 show MPO secretion for both humans and canines. In all of these experiments, isolated neutrophils were stimulated with LPS at a concentration of 1×10^−6 M for 10 minutes at 37° C. prior to adding the stimuli as indicated in the figures. The LPS primes the cells so they can respond to a secretagogue.
Isolation of PMNs from canine blood—The steps involved in isolating PMN include collecting 10 ml ACD anticoagulated blood. Then layering 5 ml on 3.5 ml PMN isolation media while ensuring that the PMN isolation media (IM) was at room temperature (RI). Next, the blood was centrifuged at room temperature for 30′, 550×g at 1700 RPMs. The low lower white band was transferred into 15 ml conical centrifuge tube (CCFT). Next, 2V HESS with 10% fetal bovine serum […] was added and centrifuged at room temperature for 10′, 400×g at 1400 RPMs. The pellet was then resuspended in 5 ml 1-1ESS with PBS. The cell suspension was added to 50 ml CCFT containing 20 ml of ice cold 0.88% NH4Cl and inverted two to three times. The resulting product was centrifuged for 10′, 800×g at 2000 RPMs, then aspirated and resuspended in 5 ml HBSS with FBS. The prep was examined by counting and cytospin and preferably for whole blood, the cell number should be between 10^9-10^11 cells and for PMNs, cell number should be between 2-4×10^7 cells. See generally, Wang et al., J. Immunol., “Neutrophil-induced changes in the biomechanical properties of endothelial cells: roles of ICAM-1 and reactive oxygen species,” 6487-94 (2000).
MPO Colorimetric Enzyme Assay—Samples were assayed for MPO activity in 96 well round bottom microtiter plates using a sandwich ELISA kit (R & D Systems, Minneapolis, Minn.). […]

PP2A [3] = test: Protein phosphatase activity assay in NHBE cell lysates, PP2A; format: cell-based, human
Protocol: as §1

[4] = system: isolated human neutrophils; test: MPO secretion from isolated human neutrophils stimulated with PMA + 8-Br-cGMP (FIG. 7, 8, 9); format: cell-based; settings: FIG. 9; 8-Br-cGMP alone, until co-stimulation with PMA
NHBE cells = test: Mucin secretion from NHBE cells, ELISA; format: cell-based, human; settings: FIG. 3; NHBE cells preincubated 15 min; okadaic acid 500 nM, fostriecin indicated concentrations
Protocol: It is believed that PKG acts to dephosphorylate MARCKS via activation of a protein phosphatase. […] NHBE cells were preincubated with the indicated concentration of fostriecin, okadaic acid (500 nM), or medium alone for 15 min and then stimulated with PMA (100 nM)+8-Br-cGMP (1 μM) for 15 min or with UTP (100 μM) for 2 h. Secreted mucin was measured by ELISA. […] Thus, dephosphorylation of MARCKS by a PKG-activated PP2A appears to be an essential component of the signaling pathway leading to mucin granule exocytosis.
MARCKS-related Peptides—Both the myristoylated N-terminal sequence (MANS) and the random N-terminal sequence (RNS) peptides were synthesized at Genemed Synthesis, Inc. (San Francisco, Calif.), then purified by high pressure liquid chromatography (>95% pure), and confirmed by mass spectroscopy with each showing one single peak with an appropriate molecular mass. The MANS peptide consisted of sequence identical to the first 24 amino acids of MARCKS, i.e. the myristoylated N-terminal region that mediates MARCKS insertion into membranes, MA-[…] […]

PP2A [5] = biological target: PP2A (Homo sapiens, UniProt P67775); settings: inhibitor of PP2A; cited from earlier work
PP2A (Homo sapiens, UniProt P67775), sequence (P67775 whole entry): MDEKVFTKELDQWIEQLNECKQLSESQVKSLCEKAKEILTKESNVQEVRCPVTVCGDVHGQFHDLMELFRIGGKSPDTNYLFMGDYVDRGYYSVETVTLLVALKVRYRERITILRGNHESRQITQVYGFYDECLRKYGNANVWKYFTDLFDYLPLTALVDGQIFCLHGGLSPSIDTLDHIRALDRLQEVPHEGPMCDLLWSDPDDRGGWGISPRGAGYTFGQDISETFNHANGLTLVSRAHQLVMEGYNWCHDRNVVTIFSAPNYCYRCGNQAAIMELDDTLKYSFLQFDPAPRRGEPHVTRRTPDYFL

Nc1nc2c(nc(Br)n2[C@@H]2O[C@@H]3COP(=O)(O)O[C@H]3[C@H]2O)c(=O)[nH]1 [8-Br-cGMP]
PP1 activity (PP1): remained unchanged | effect on MARCKS phosphorylation induced by PMA ([1]; 1 μM 8-Br-cGMP, 100 nM PMA): reversed | MPO secretion from LPS-stimulated canine neutrophils [2]: little effect | PP2A activity (PP2A [3]; NHBE cells after 8-Br-cGMP, from 0.1): 0.3 nmol/min/mg proteins | increase of PP2A activity (PP2A [3]; NHBE cells, 8-Br-cGMP as low as 0.1 μM, p<0.01): approximately 3 fold | MPO secretion from LPS-stimulated human neutrophils [4]: little effect

C[C@@](O)(/C=C/[C@H]1CC=CC(=O)O1)[C@@H](C[C@@H](O)\C=C/C=C\C=C\CO)OP(=O)(O)O [fostriecin]
mucin secretion induced by PMA+8-Br-cGMP or UTP (NHBE cells): attenuated mucin secretion | effect on PKG-induced MARCKS dephosphorylation ([1]; fostriecin 1-500 nM): inhibited PKG-induced MARCKS dephosphorylation in a concentration-dependent manner | IC50 (PP2A [5]): 3.2 nM

C=C1[C@@H](O)[C@@H]2O[C@]3(CC[C@H](/C=C/[C@@H](C)[C@@H]4CC(C)=C[C@@]5(O[C@H](C[C@@](C)(O)C(=O)O)CC[C@H]5O)O4)O3)CC[C@H]2O[C@@H]1[C@@H](O)C[C@H](C)[C@H]1O[C@@]2(CCCCO2)CC[C@H]1C [okadaic acid]
mucin secretion induced by PMA+8-Br-cGMP or UTP (NHBE cells): attenuated mucin secretion | effect on PKG-induced MARCKS dephosphorylation ([1]; 500 nM okadaic acid): blocked

calphostin C
effect on PMA-induced MARCKS phosphorylation ([1]; 500 nM calphostin C + 100 nM PMA): attenuated
